Reference: ChEMBL document CHEMBL3227967, “Quantitative structure-activity relationships in 1-aryl-2-(alkylamino)ethanol antimalarials” (J Med Chem, 1979)

Test system: Plasmodium berghei
Assay: Antimalarial activity against Plasmodium berghei
Assay type: functional

Row | Compound | log(1/C)
1 | CCCCCCN(CCCCCC)CC(O)c1cc(-c2ccc(Cl)cc2)nc2c(C)c(Cl)ccc12 (stereo not given) | 3.85
2 | CCCCCCCN(CCCCCCC)CC(O)c1cc(-c2ccc(Cl)cc2)nc(-c2ccc(Cl)cc2)c1 (stereo not given) | 2.67
3 | CCC(C)NCC(O)c1cc(-c2ccc(Cl)cc2)nc(-c2ccc(Cl)cc2)c1 (stereo not given) | 4.09
4 | CCCNCCC(O)c1cc(C(F)(F)F)nc2c(C(F)(F)F)cccc12 (stereo not given) | 2.82
5 | CCCCCNCC(O)c1cc(-c2ccc(C(F)(F)F)cc2)nc(-c2ccc(C(F)(F)F)cc2)c1 (stereo not given) | 4.17
6 | CCCCN(CCCC)CC(O)c1cc2ccccc2c2cc(F)ccc12 (stereo not given) | 2.58
7 | CCCCN(CCCC)CC(O)c1cc(C23CC4CC(CC(C4)C2)C3)nc2ccc(Cl)cc12 (stereo not given) | 3.05
8 | CCCN(CCC)CC(O)c1cc2ccc(Br)cc2c2cc(Br)ccc12 (stereo not given) | 3.95
9 | Cc1cc(C)cc(-c2cc(C(O)CC3CCCCN3)c3ccccc3n2)c1 (stereo not given) | 2.24
10 | OC(CC1CCCCN1)c1cc2ccc(Cl)cc2c2cc(Cl)c(Cl)cc12 (stereo not given) | 3.86
11 | CCCCN(CCCC)CC(O)c1cc2ccc(C(F)(F)F)cc2c2cc(C(F)(F)F)ccc12 (stereo not given) | 4.1
12 | CCCCCCCN(CCCCCCC)CC(O)c1cc2ccc(Cl)cc2c2ncccc12 (stereo not given) | 2.48
13 | CCCCCCCCN(CCCCCCCC)CC(O)c1ccc(Br)c2ccccc12 (stereo not given) | 2.24
14 | CCCCN(CCCC)CC(O)c1cc2cc(Br)c(Br)cc2c2cc(C(F)(F)F)ccc12 (stereo not given) | 4.31
15 | OC(CCC1CCCCN1)c1cc(C(F)(F)F)nc2c(C(F)(F)F)cccc12 (stereo not given) | 3.36
16 | CCCCN(CCCC)CC(O)c1cc(-c2ccc(OC)cc2)nc(-c2ccc(Cl)c(Cl)c2)c1 (stereo not given) | 2.68
17 | CCCCN(CCCC)CC(O)c1cc2ccc(C(F)(F)F)cc2c2cc(Cl)sc12 (stereo not given) | 3.84
18 | CCOC(CCCNCC(O)c1cc2ccc(C(F)(F)F)cc2c2cc(C(F)(F)F)ccc12)OCC (stereo not given) | 3.55
19 | CCCCN(CCCC)CC(O)c1c(Cl)c(-c2ccc(Cl)cc2)nc2c(Cl)cc(Cl)cc12 (stereo not given) | 3.87
20 | CCCCCCCN(CCCCCCC)CC(O)c1cc2ccccc2c2cc(Br)ccc12 (stereo not given) | 3.55
21 | CCCCCCCN(CCCCCCC)CC(O)c1cc(-c2ccc(Cl)cc2)cc2cc(Cl)c(OC)cc12 (stereo not given) | 3.31
22 | CCN(CC)CC(O)c1cc(-c2ccc(Cl)c(Cl)c2)nc2ccc(OC)cc12 (stereo not given) | 3.15
23 | CCCCN(CCCC)CC(O)c1cc2cc(Br)ccc2c2cc(Br)ccc12 (stereo not given) | 4.17
24 | CCCCCCN(CCCCCC)CC(O)c1cc2ccccc2c2ccccc12 (stereo not given) | 2.4

Row | Compound | log(1/C)
25 | CCCCCCCN(CCCCCCC)CCC(O)c1cc2ccc(C(F)(F)F)cc2c2cc(C(F)(F)F)ccc12 (stereo not given) | 3.2
26 | CCCCN(CCCC)CC(O)c1cc(-c2cccc(I)c2)nc2c(Cl)cc(Cl)cc12 (stereo not given) | 3.16
27 | CCCCCN(CCCCC)CC(O)c1cc2ccc(Cl)c(Cl)c2c2cc(C(F)(F)F)ccc12 (stereo not given) | 4.26
28 | OC(CC1CCCCN1)c1cc2c(Cl)cc(Cl)cc2c2ccc(Cl)cc12 (stereo not given) | 3.79
29 | CCCCCCN(CCCCCC)CC(O)c1cc(-c2ccc(OC)cc2)nc2c(Cl)cc(OC)cc12 (stereo not given) | 3.15
30 | CCCCCCCN(CCCCCCC)CC(O)c1cc2c(Cl)cc(Cl)cc2c2cc(Cl)sc12 (stereo not given) | 2.67
31 | OC(CC1CCCCN1)c1cc2ccc(Cl)cc2c2cc(C(F)(F)F)ccc12 (stereo not given) | 4.09
32 | CCCCN(CCCC)CC(O)c1cc(-c2cc(OC)c(OC)c(OC)c2)nc2c1cc(Cl)c1ccccc12 (stereo not given) | 3.32
33 | CCCCN(CCCC)CC(O)c1cc2ccccc2c2cc(C(F)(F)F)ccc12 (stereo not given) | 3.23
34 | OC(CC1CCCCN1)c1cc(Oc2ccc(Cl)cc2)nc2c(Cl)cc(Cl)cc12 (stereo not given) | 4.16
35 | COc1ccc(-c2cc(C(O)CC3CCCCN3)c3cc(C)ccc3n2)cc1 (stereo not given) | 3
36 | CCCCN(CCCC)CC(O)c1cc2ccc(C(F)(F)F)cc2c2ccccc12 (stereo not given) | 2.8
37 | OC(CC1CCCCN1)c1cc2ccccc2c2cc(C(F)(F)F)ccc12 (stereo not given) | 3.37
38 | CCCCN(CCCC)CC(O)c1ccc(Cl)c2nc(-c3ccccc3)ccc12 (stereo not given) | 2.47
39 | Cc1ccc2c(C(O)CC3CCCCN3)cc3ccc(C(F)(F)F)cc3c2c1 (stereo not given) | 3.16
40 | CCCCN(CCCC)CC(O)c1cc2c(Cl)cc(Cl)cc2c2c(Cl)cc(Cl)cc12 (stereo not given) | 4.05
41 | OC(CC1CCCCN1)c1cc2c(Cl)cc(Cl)cc2c2cc(C(F)(F)F)ccc12 (stereo not given) | 4.1
42 | CCCCCCCN(CCCCCCC)CC(O)c1cc2ccc(C(F)(F)F)cc2c2cc(Cl)ccc12 (stereo not given) | 2.9
43 | CCCCN(CCCC)CC(O)c1cc2ccc(Cl)cc2c2c(Cl)cc(Cl)cc12 (stereo not given) | 4.21
44 | CCCCCN(CCCCC)CC(O)c1ccc(Br)c2ccccc12 (stereo not given) | 2.16
45 | OC(CNC12CC3CC(CC(C3)C1)C2)c1cc(-c2ccc(Cl)cc2)nc2c(Cl)cc(Cl)cc12 (stereo not given) | 3.59
46 | CCCCN(CCCC)CC(O)c1c(Br)c2ccccc2c2ccccc12 (stereo not given) | 2.51
47 | CCCCCCCN(CCCCCCC)CC(O)c1cc2ccc(C(F)(F)F)cc2c2ccccc12 (stereo not given) | 3.12
48 | Cc1cc(C)c2nc(C(F)(F)F)cc(C(O)CC3CCCCN3)c2c1 (stereo not given) | 2.93

Row | Compound | log(1/C)
49 | CCCCN(CCCC)CC(O)c1cc2cc(Br)ccc2c2cc(S(C)(=O)=O)ccc12 (stereo not given) | 3.43
50 | CCCCCCCN(CCCCCCC)CC(O)c1cc2c(Cl)cc(Cl)cc2c2ncccc12 (stereo not given) | 2.86
51 | CCCCCCN(CCCCCC)CC(O)c1cccc2c1cc(Br)c1ccccc12 (stereo not given) | 2.77
52 | CCCCN(CCCC)CC(O)c1cc(-c2ccccc2)nc(-c2ccc(Cl)cc2)c1 (stereo not given) | 2.91
53 | CCCCN(CCCC)CC(O)c1cc(-c2ccc(Cl)cc2)nc2cc(C(F)(F)F)ccc12 (stereo not given) | 4.14
54 | CCCCCCCN(CCCCCCC)CC(O)c1cc2ccc(I)cc2c2cc(C(F)(F)F)ccc12 (stereo not given) | 3.55
55 | CCCCN(CCCC)CC(O)c1cc(-c2ccc(O)cc2)nc2c(Cl)cc(Cl)cc12 (stereo not given) | 2.66
56 | CCCCN(CCCC)CC(O)c1cc(-c2ccc(Cl)cc2)cc2cc(Cl)c(OC)cc12 (stereo not given) | 2.96
57 | CCCCN(CCCC)CC(O)c1cc2c(Cl)c(Cl)ccc2c2cc(C(F)(F)F)ccc12 (stereo not given) | 3.55
58 | CCCCN(CCCC)CC(O)c1cc(-c2ccc3c(c2)OCO3)nc2cc(Cl)ccc12 (stereo not given) | 3.09
59 | CN1CCN(CC(O)c2cc(-c3ccc(F)cc3)nc3cc(F)ccc23)CC1 (stereo not given) | 2.27
60 | CCCCCCN(CCCCCC)CC(O)c1cc(-c2ccc(Cl)cc2)nc2cc(C(F)(F)F)ccc12 (stereo not given) | 2.85
61 | COc1ccc(-c2cc(C(O)CC3CCCCN3)c3ccccc3n2)cc1 (stereo not given) | 2.53
62 | CCCNCC(O)c1cc(-c2ccc(C(F)(F)F)cc2)nc(-c2ccc(C(F)(F)F)cc2)c1 (stereo not given) | 4.03
63 | CCCC[N+]([O-])(CCCC)CC(O)c1cc(-c2ccc(Cl)c(Cl)c2)nc(-c2ccc(Cl)c(Cl)c2)c1 (stereo not given) | 2.72
64 | CCCCNCCC(O)c1cc2c(Cl)cc(Cl)cc2c2cc(C(F)(F)F)ccc12 (stereo not given) | 4.62
65 | CCCCCCCN(CCCCCCC)CC(O)c1cccc2c1ccc1ccccc12 (stereo not given) | 2.58
66 | OC(CC1CCCCN1)c1cc(Oc2ccc(Cl)cc2)nc2ccccc12 (stereo not given) | 2.68
67 | CCCN(CCC)CC(O)c1cc2c(Cl)cc(Cl)cc2c2cc(Cl)ccc12 (stereo not given) | 4.19
68 | CCCCN(CCCC)CC(O)c1cc2cc(Cl)ccc2c2cc(C(F)(F)F)ccc12 (stereo not given) | 3.69
69 | CCCCN(CCCC)CC(O)c1cc(-c2ccc(Cl)cc2)nc2cc(Cl)c(C)cc12 (stereo not given) | 4.22
70 | OC(CC1CCCCN1)c1cc2c(Cl)cc(Cl)cc2c2cc(Br)ccc12 (stereo not given) | 3.81
